The values that follow come from US20140031283A1, “ANTICANCER FUSION PROTEIN” (ADAMED SP. Z O.O., priority 2011, published 2014).

Some results are limits rather than exact numbers.

One test deals with A549. Put plainly: MTT cytotoxicity test, A549 (human lung cancer). The class given is cell-based. The conditions noted are these: continuous incubation over 72 h, test MTT. The source says: MTT assay is a colorimetric assay used to measure proliferation, viability and cytotoxicity of cells. It consists in decomposition of a yellow tetrazolium salt MTT (4,5-dimethyl-2-thiazolyl)-2,5-diphenyltetrazolium bromide) to the water-insoluble purple dye formazan by mitochondrial enzyme succinate-tetrazolium reductase 1. MTT reduction occurs only in living cells. Data analysis consists in determining IC50 concentration of the protein (in ng/ml), at which the 50% reduction in the number of cells occurs in the population treated compared to control cells. Results were analyzed using GraphPad Prism 5.0 software. The test was performed according to the literature descriptions (Cells, J E, (1998). Cell Biology, a Laboratory Handbook, second edition, Academic Press, San Diego; Yang, Y., Koh, L W, Tsai, J H., (2004); Involvement of viral and chemical factors with oral cancer in Taiwan, Jpn J Clin Oncol, 34 (4), 176-183). Cell culture medium was diluted to a defined density (10^4-10^5 cells per 100 μl). Then 100 μl of appropriately diluted cell suspension was applied to a 96-well plate in triplicates. Thus prepared cells were incubated for 24 h at 37° C. in 5% or 10% CO2, depending on the medium used, and then to the cells (in 100 μl of medium) further 100 μl of the medium containing various concentrations of tested proteins were added. In the case of combination hTRAIL114-281 and p21WAF effector protein, 100 μl of the medium containing mixture of hTRAIL114-281 and p21WAF effector protein in molar ratio 1:1 was added. After incubation of the cells with tested proteins over the period of next 72 hours, which is equivalent to 3-4 times of cell division, the medium with the test protein was added with […] of MTT working solution [5 mg/ml], and incubation was continued for 3 h at 37° C. in 5% CO2. Then the medium with MTT solution was removed, and formazan crystals were dissolved by adding 100 μl of DMSO. After stirring, the absorbance was measured at 570 nm (reference filter 690 nm). […]
On the technique in general: Formazan colour is commonly taken as a measure of viable cells.

The subject of test [1] is human colon cancer HCT116. Put plainly: HCT116 colon cancer xenograft in Crl:CD1-Foxn1^nu 1 mice. The class given is in vivo. The conditions noted are these: HCT116, Crl:CD1-Foxn1^nu 1 mice. On the procedure:
Antitumor activity of protein preparations was tested in a mouse model of human colon cancer HCT116, human colon cancer Colo205, human colon cancer model SW620, human liver cancer model HepG2, and human lung cancer models NCI-H460 and NCI-H460-Luc2.
The HCT116 (in mice Crl:CD1-Foxn1^nu 1), Colo205, NCI-H460, NCI-H460-Luc2 cells were maintained in RPMI 1640 medium (Hyclone, Logan, Utah, USA) mixed in the ratio of 1:1 with Opti-MEM (Invitrogen, Cat.22600-134) supplemented with 10% fetal calf serum and 2 mM glutamine. On the day of mice grafting, the cells were detached from the support by washing the cells with trypsin (Invitrogen), then the cells were centrifuged at 1300 rpm, 4° C., 8 min., suspended in HBSS buffer (Hanks medium), counted and diluted to the concentration of 25×10^6 cells/ml.
Examination of antitumor activity of proteins of the invention was conducted on 7-9 week-old CD-nude (Crl:CD1-Foxn1^nu 1) or 4-6 week-old Crl:SHO-Prkdc^scidHr^hr mice obtained from Charles River Germany. Mice were kept under specific pathogen-free conditions with free access to food and demineralised water (ad libitum). All experiments on animals were carried in accordance with the guidelines: “Interdisciplinary Principles and Guidelines for the Use of Animals in Research. […]

Regarding “rhTRAIL114-281: recombinant human soluble TRAIL, amino acids 114-281 of hTRAIL, used as the comparative reference”, the “A549 IC50” value in the test on A549 was over 10 mg/L. Moreover, the “tumor growth inhibition (TGI) relative to the control” value came to 21.8% in test [1] (10 mg/kg i.v. daily for ten days, 31th day) and 44% in test [1] (10 mg/kg i.v., 10 daily applications with a two-day break after the first 5, 27th day).
